SMILES strings stand for the structures.

Usually IC50 stands for the concentration that inhibits the measured activity by half. As a reminder, the Kd is the constant that tells how readily two partners part at equilibrium.

In one data set the target is T1, CYP1A2 (Homo sapiens, UniProt P05177).
T1 sequence (P05177 whole entry): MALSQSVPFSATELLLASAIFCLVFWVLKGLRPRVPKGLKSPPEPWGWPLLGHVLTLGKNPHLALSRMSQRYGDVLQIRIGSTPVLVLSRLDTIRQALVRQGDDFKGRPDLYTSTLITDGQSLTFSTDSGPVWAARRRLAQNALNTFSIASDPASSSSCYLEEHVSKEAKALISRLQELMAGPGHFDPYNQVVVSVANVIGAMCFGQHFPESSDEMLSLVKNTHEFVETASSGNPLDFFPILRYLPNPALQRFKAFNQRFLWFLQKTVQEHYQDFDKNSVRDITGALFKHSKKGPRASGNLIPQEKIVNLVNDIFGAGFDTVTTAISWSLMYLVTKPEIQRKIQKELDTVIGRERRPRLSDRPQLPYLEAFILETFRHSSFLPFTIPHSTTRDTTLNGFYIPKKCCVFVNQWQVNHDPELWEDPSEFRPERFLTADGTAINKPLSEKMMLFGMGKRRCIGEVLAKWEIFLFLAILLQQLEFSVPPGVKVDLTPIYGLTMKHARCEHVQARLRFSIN
As to the kind of experiment: Inhibition of human CYP1A2 assessed as remaining enzyme activity at 10 uM preincubated for 5 mins followed by Vivid CYP substrate addition measured after 20 mins by fluorescence assay relative to control. It is filed as ADME. Particulars: probe Vivid CYP substrate, read-out: Activity.

For another data set, the target named is CYP3A4 (Homo sapiens, UniProt P08684). As to the kind of experiment: Inhibition of human CYP3A4 assessed as remaining enzyme activity at 10 uM preincubated for 5 mins followed by Vivid CYP substrate addition measured after 20 mins by fluorescence assay relative to control. In kind it is ADME. Particulars: probe Vivid CYP substrate, read-out: Activity.
Data set [1] deals with Translocator protein (Rattus norvegicus, UniProt P16257). As to the kind of experiment: Displacement of [3H]PK11195 from TSPO in Sprague-Dawley rat cerebral cortex membranes after 60 mins by liquid scintillation counting analysis. More on the design: species or system Membrane.
In the next data set the target is CYP2C19 (Homo sapiens, UniProt P33261). As to the kind of experiment: Inhibition of human CYP2C19 assessed as remaining enzyme activity at 10 uM preincubated for 5 mins followed by Vivid CYP substrate addition measured after 20 mins by fluorescence assay relative to control. In kind it is ADME. The note with it: probe Vivid CYP substrate, read-out: Activity.
The target in the next data set is CYP2D6 (Homo sapiens, UniProt P10635). The data set can be described thus: Inhibition of human CYP2D6 assessed as remaining enzyme activity at 10 uM preincubated for 5 mins followed by Vivid CYP substrate addition measured after 20 mins by fluorescence assay relative to control. In kind it is ADME. The note with it: probe Vivid CYP substrate, read-out: Activity.

In data set [2] the target is Translocator protein (Mus musculus) (UniProt P50637). The data set can be described thus: Inhibition of TSPO in mouse HT22 cells assessed as recovery of ATP production at 5 uM preincubated for 10 mins followed by amyloid beta (1 to 42) stimulation and measured after 7 hrs by luciferase based assay relative to control. More on the design: scale not given: the % may be the effect or the level left. In kind it is cell-based.

For data set [3] the target is unchanged. As to the kind of experiment: Inhibition of TSPO in mouse HT22 cells assessed as reduction in amyloid beta (1 to 42) (unknown origin) induced mitochondrial permeability transition pore formation by measuring increase in green to red fluorescence ratio at 5 uM pretreated for 10 mins followed by amyloid beta (1 to 42) stimulation and measured at 1 hr interval for 3 hrs by JC-1 dye based fluorescence assay relative to control. It is filed as cell-based. Details: scale not given: the % may be the effect or the level left.

Data set [4] is described as follows: Cytotoxicity against mouse HT22 cells as cell viability at 5 uM after 24 hrs by MTT assay relative to control. In kind it is cell-based, HT-22. Particulars: read-out: Activity. (Tetrazolium dyes change colour on reduction, which living cells bring about.)
For a further data set, the target named is CYP2C9 (Homo sapiens, UniProt P11712). The data set can be described thus: Inhibition of human CYP2C9 assessed as remaining enzyme activity at 10 uM preincubated for 5 mins followed by Vivid CYP substrate addition measured after 20 mins by fluorescence assay relative to control. It is filed as ADME. The note with it: probe Vivid CYP substrate, read-out: Activity.

The target in data set [5] is Translocator protein (Homo sapiens, UniProt P30536). As to the kind of experiment: Binding affinity to C-terminal DDK-tagged human recombinant full-length TSPO expressed in HEK293 cells by SPR assay.
The nature of data set [6]: Stability in rat plasma assessed as parent compound remaining at 10 uM after 120 mins by LC-MS/MS analysis. In kind it is ADME, cell-free. The note with it: read-out: Stability.
Data set [7] is described as follows: Stability in mouse liver microsomes assessed as parent compound remaining at 1 uM preincubated for 5 mins followed by NADPH addition measured after 30 mins by LC-MS/MS analysis. It is filed as ADME, microsome. Particulars: read-out: Stability. A general note: Liver microsomes are a subcellular fraction often used to study metabolism.
Data set [8] is described as follows: Stability in human plasma assessed as parent compound remaining at 10 uM after 120 mins by LC-MS/MS analysis. It is filed as ADME, cell-free. The note with it: read-out: Stability.
A short description of data set [9]: Stability in rat plasma assessed as parent compound remaining at 10 uM after 30 mins by LC-MS/MS analysis. In kind it is ADME, cell-free. Particulars: read-out: Stability.
The nature of data set [10]: Stability in dog liver microsomes assessed as parent compound remaining at 1 uM preincubated for 5 mins followed by NADPH addition measured after 30 mins by LC-MS/MS analysis. Particulars: read-out: Stability. It is filed as ADME, Canis lupus familiaris, microsome.
Data set [11] is described as follows: Stability in human plasma assessed as parent compound remaining at 10 uM after 30 mins by LC-MS/MS analysis. Particulars: read-out: Stability. It is filed as ADME, cell-free.
The nature of data set [12]: Stability in human liver microsomes assessed as parent compound remaining at 1 uM preincubated for 5 mins followed by NADPH addition measured after 30 mins by LC-MS/MS analysis. It is filed as ADME, microsome. The note with it: read-out: Stability.
A short description of data set [13]: Stability in rat liver microsomes assessed as parent compound remaining at 1 uM preincubated for 5 mins followed by NADPH addition measured after 30 mins by LC-MS/MS analysis. It is filed as ADME, microsome. Particulars: read-out: Stability.

Sequence of Translocator protein (Rattus norvegicus, UniProt P16257) (P16257 whole entry, looked up): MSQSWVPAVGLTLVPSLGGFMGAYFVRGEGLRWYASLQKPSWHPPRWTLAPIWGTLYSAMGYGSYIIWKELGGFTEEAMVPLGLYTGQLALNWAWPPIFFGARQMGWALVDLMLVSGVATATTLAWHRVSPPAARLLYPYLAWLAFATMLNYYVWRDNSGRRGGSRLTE
Sequence of CYP2C19 (P33261 whole entry): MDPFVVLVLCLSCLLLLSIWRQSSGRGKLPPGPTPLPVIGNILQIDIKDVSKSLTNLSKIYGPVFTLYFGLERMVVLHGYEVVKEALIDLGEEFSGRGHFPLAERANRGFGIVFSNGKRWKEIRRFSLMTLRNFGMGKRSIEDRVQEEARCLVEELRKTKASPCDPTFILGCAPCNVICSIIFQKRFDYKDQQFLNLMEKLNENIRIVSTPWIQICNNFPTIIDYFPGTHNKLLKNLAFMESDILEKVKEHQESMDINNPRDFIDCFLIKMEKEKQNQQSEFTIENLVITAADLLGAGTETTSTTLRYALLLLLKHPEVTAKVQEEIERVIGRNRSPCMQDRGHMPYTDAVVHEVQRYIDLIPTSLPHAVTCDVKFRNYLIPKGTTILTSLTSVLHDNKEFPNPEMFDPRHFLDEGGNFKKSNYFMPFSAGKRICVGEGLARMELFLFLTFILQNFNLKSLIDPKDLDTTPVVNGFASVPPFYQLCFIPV
Sequence of CYP2D6 (P10635 whole entry): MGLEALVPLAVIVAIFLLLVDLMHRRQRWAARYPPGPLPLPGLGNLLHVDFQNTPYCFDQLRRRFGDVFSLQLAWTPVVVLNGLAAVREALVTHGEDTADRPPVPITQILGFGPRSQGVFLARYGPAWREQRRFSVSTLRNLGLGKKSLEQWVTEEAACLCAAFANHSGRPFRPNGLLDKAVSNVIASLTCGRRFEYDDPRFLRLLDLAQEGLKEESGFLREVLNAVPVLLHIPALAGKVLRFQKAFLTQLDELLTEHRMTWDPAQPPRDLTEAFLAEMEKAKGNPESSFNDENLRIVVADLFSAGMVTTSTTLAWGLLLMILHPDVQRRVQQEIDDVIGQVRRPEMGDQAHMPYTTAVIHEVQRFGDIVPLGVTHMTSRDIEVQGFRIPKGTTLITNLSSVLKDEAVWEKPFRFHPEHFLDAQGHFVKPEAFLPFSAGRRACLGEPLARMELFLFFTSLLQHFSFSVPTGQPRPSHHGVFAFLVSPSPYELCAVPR
Sequence of Translocator protein (Mus musculus) (P50637 whole entry, looked up): as the sequence (P16257 whole entry, looked up) above, with S2P, Q3E, I67V, E77D, V110A, M113L, M149V, T168P counted along it
Sequence of CYP2C9 (P11712 whole entry): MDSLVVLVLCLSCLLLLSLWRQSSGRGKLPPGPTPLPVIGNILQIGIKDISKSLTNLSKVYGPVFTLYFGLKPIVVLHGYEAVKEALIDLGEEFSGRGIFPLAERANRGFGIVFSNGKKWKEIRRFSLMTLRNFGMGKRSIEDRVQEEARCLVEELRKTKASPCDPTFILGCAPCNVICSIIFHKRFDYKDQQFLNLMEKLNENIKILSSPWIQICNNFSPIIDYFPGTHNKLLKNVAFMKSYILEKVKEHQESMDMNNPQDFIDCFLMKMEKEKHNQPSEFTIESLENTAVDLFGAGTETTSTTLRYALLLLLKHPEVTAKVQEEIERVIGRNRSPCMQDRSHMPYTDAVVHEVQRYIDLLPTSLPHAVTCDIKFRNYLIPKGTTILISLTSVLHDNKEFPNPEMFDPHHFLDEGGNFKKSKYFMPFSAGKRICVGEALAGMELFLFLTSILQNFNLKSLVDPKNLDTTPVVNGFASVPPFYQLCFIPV
Sequence of CYP3A4 (P08684 whole entry): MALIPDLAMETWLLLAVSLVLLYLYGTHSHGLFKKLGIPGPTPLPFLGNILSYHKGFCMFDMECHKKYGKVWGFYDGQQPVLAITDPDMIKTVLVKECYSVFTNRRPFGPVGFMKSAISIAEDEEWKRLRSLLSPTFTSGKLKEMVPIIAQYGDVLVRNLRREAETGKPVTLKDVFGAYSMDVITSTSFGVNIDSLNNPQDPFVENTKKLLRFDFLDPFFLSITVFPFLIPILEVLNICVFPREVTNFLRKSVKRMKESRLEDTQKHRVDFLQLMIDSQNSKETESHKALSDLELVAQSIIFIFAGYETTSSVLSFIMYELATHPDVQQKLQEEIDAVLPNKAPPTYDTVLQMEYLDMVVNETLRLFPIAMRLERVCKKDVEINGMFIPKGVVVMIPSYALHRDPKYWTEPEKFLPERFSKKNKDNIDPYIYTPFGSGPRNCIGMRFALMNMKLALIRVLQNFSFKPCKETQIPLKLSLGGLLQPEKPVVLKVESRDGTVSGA
Sequence of Translocator protein (Homo sapiens, UniProt P30536) (P30536 whole entry): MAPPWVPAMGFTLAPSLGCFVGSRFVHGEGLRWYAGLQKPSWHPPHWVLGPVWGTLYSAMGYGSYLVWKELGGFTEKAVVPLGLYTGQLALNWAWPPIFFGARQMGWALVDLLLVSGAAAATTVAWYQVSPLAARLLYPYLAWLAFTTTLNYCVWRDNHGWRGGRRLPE

On to `CCN(Cc1ccccc1)C(=O)CSc1nnc(C)n2c1cc1sc(C)cc12`, for which the activity at 20 min, 10 µM on CYP1A2 was found to be 70.9%; on CYP3A4 it was 51.4%; at CYP2C19, 10.2%; at CYP2D6, 38.4%; at CYP2C9 it was 21.1%. In addition, on Translocator protein [1], the IC50 was determined as 123 nM. The Activity came out at 26% in data set [2] and 66% in [3]. Moreover, the viability at 24 h, 5 µM in [4] was 97%.
As for `CCc1nnc(SCC(=O)N(C)c2ccccc2)c2cc3sc(C)cc3n12`, the activity at 20 min, 10 µM on CYP1A2 was 50.7%; at CYP3A4, 64.1%; on CYP2C19, 52.2%; on CYP2D6, 60.4%; on CYP2C9, 64.8%. Besides, the Kd at Translocator protein [5] stood at 61.2 nM. At Translocator protein [1], this molecule registered a 50% inhibitory concentration (IC50) of 39.9 nM. Besides, the remaining at 2 h, 10 µM was found to be 80.6% in [6] and 93.6% in data set [8]. Also, the remaining at 0.5 h, 1 µM in [7] was 12.8%; in data set [10], 9.8%; in [12], 8.8%; in data set [13] it was 9%. Besides, the Activity stood at 44% in [2] and 61% in data set [3]. Further, the remaining at 0.5 h, 10 µM in [9] came out at 96.6%; in data set [11], 99.3%. The viability at 24 h, 5 µM in data set [4] was 91%.
`CCc1nnc(SCC(=O)Nc2ccccc2)c2cc3sc(C)cc3n12`: the activity at 20 min, 10 µM worked out at 49.2% at CYP1A2; 34.1% on CYP3A4; 44.1% on CYP2C19; 17% on CYP2D6; 95.9% at CYP2C9. On Translocator protein [1], this molecule gave an IC50 of 1670 nM. Further, the Activity in [2] turned out to be 22%; in data set [3] it was 61%. In addition, the viability at 24 h, 5 µM in [4] was 92%.
In the case of `CCc1nnc(SCC(=O)N2CCN(c3ccccc3)CC2)c2cc3sc(C)cc3n12`, the activity at 20 min, 10 µM amounted to 40.1% at CYP1A2; 20.6% at CYP3A4; 20.3% at CYP2C19; 81.7% on CYP2D6; 38.8% on CYP2C9. Moreover, the IC50 at Translocator protein [1] was 2220 nM. Further, the values for the Activity in data set [2] and in [3] were 41% and 70%, respectively. Moreover, the viability at 24 h, 5 µM in [4] is 99%.
`CCc1nnc(SCC(=O)N(C)c2ccccc2)c2cc3sccc3n12`: the activity at 20 min, 10 µM amounted to 33.7% at CYP1A2; 32.2% at CYP3A4; 16.8% on CYP2C19; 49.5% at CYP2D6; 70.5% at CYP2C9. Besides, at Translocator protein [5], the equilibrium dissociation constant (Kd) stood at 39.6 nM. For the same molecule, the IC50 at Translocator protein [1] was 24.8 nM. Also, the remaining at 2 h, 10 µM came to 72.4% in data set [6] and 96.8% in [8]. Besides, the remaining at 0.5 h, 1 µM in [7] amounted to 8.2%; in [10] it was 5.1%; in data set [12], 5%; in data set [13] it was 6.4%. Moreover, the Activity was 8% in data set [2] and 46% in data set [3]. Besides, the values for the remaining at 0.5 h, 10 µM in data set [9] and in [11] were 94% and over 100%, respectively. In addition, in data set [4], the viability at 24 h, 5 µM is 97%.
Take `Cc1nnc(SCC(=O)N(C)c2ccccc2)c2cc3sccc3n12`: the activity at 20 min, 10 µM on CYP1A2 is 46.8%; on CYP3A4 it was 41.3%; on CYP2C19, 28.8%; on CYP2D6, 48.8%; on CYP2C9 it was 124%. The IC50 at Translocator protein [1] worked out at 55.1 nM. In addition, the Activity in [2] worked out at 25%; in [3], 56%. The viability at 24 h, 5 µM in data set [4] stood at 99%.
As to `CCc1nnc(SCC(=O)Nc2ccc(OC)c(OC)c2)c2cc3sc(C)cc3n12`, the activity at 20 min, 10 µM at CYP1A2 worked out at 65.5%; on CYP3A4, 44.7%; at CYP2C19 it was 30.9%; at CYP2D6, 54.2%; on CYP2C9, 50%. The IC50 on Translocator protein [1] is over 10000 nM. Moreover, the figures for the Activity in [2] and in data set [3] were 18% and 62%, respectively. Further, the viability at 24 h, 5 µM in [4] was 91%.

The values are drawn from ChEMBL document CHEMBL4130502, “Discovery of thienopyrrolotriazine derivatives to protect mitochondrial function against Aβ-induced neurotoxicity” (Eur J Med Chem, 2017).
